Assay results as given in paper PMC12860872, “Preclinical evaluation of DOTAGA.Glu.(FAPI)2 and DO3A.Glu.(FAPI)2 as theranostics with human dosimetry extrapolation to lutetium-177 and terbium-161 analogs” (European Journal of Nuclear Medicine and Molecular Imaging, 2025).

Key:
PC3-mice = assay: Biodistribution in PC3-mice incl. blocking; format: in vivo, mouse; conditions: PC3-model
Experimental: Male athymic Balb/C nude mice (6 weeks/20–25 g) were implanted with PC3 cells (3.5 × 10^6/100 µL PBS) into their right shoulder to develop tumors. The animals were used for biodistribution and PET/SPECT/CT imaging studies, once tumors reached 250–300 mm^3.
All mice were euthanized with intraperitoneal injection of pentobarbital (150 mg/kg), and selected organs were dissected, weighed, and measured for radioactivity using a gamma-counter. Results are expressed as % injected activity per gram tissue (% I.A./g), presented as mean ± SD (n = 3–4).

FAP = tested on: FAP; set-up: method as in Martin et al. 2023 (15); conditions: enzymatic assay; ref Martin et al. 2023 (15); cited from earlier work
PREP = tested on: PREP; set-up: method as in Martin et al. 2023 (15); conditions: ref Martin et al. 2023 (15); cited from earlier work
DPP4 = tested on: DPP4; set-up: method as in Martin et al. 2023 (15); conditions: ref Martin et al. 2023 (15); cited from earlier work
DPP8 = tested on: DPP8; set-up: method as in Martin et al. 2023 (15); conditions: ref Martin et al. 2023 (15); cited from earlier work
DPP9 = tested on: DPP9; set-up: method as in Martin et al. 2023 (15); conditions: ref Martin et al. 2023 (15); cited from earlier work

Row | tumor uptake (PC3-mice; labeled with gallium-68) | tumor uptake (PC3-mice; labeled with lutetium-177) | Structure (SMILES) | IC50 (FAP) | IC50 (PREP) | IC50 (DPP4) | IC50 (DPP8) | IC50 (DPP9)
1 | ~ 20% | ~ 16% | N#C[C@@H]1CC(F)(F)CN1C(=O)CNC(=O)c1ccnc2ccc(OCCCCNC(=O)CC[C@H](NC(=O)CN3CCN(CC(=O)O)CCN(CC(=O)O)CCN(CC(=O)O)CC3)C(=O)NCCCCOc3ccc4nccc(C(=O)NCC(=O)N5CC(F)(F)C[C@H]5C#N)c4c3)cc12 [DO3A.Glu.(FAPI)2] | 0.6 ± 0.04 nM | 1000 ± 140 nM | 540 ± 60 nM | 1030 ± 180 nM | 950 ± 110 nM
2 | ~ 20% | ~ 16% | N#C[C@@H]1CC(F)(F)CN1C(=O)CNC(=O)c1ccnc2ccc(OCCCCNC(=O)CC[C@H](NC(=O)CCC(C(=O)O)N3CCN(CC(=O)O)CCN(CC(=O)O)CCN(CC(=O)O)CC3)C(=O)NCCCCOc3ccc4nccc(C(=O)NCC(=O)N5CC(F)(F)C[C@H]5C#N)c4c3)cc12 (stereo partly shown) [DOTAGA.Glu.(FAPI)2] | 0.26 ± 0.04 nM | 590 ± 100 nM | 1190 ± 80 nM | 29 ± 4 nM | 83 ± 1.5 nM
3 |  |  | N#C[C@@H]1CC(F)(F)CN1C(=O)CNC(=O)c1ccnc2ccc(OCCCCNC(=O)CC[C@H](NC(=O)CCC(C(=O)O)N3CCN(CC(=O)[O-])CCN(CC(=O)[O-])CCN(CC(=O)[O-])CC3)C(=O)NCCCCOc3ccc4nccc(C(=O)NCC(=O)N5CC(F)(F)C[C@H]5C#N)c4c3)cc12.[Lu+3] (stereo partly shown) [[^natLu]Lu-DOTAGA.Glu.(FAPi)2] | 0.33 ± 0.02 nM | 430 ± 160 nM | 650 ± 40 nM | 220 ± 20 nM | 190 ± 10 nM
